Test results from US20220079194A1, “EXTRUDATE FOOD COMPOSITIONS COMPRISING CULTIVATED ANIMAL CELLS AND METHODS OF PRODUCTION THEREOF” (GOOD Meat, Inc., priority 2020, published 2022).

What was measured:
C1F chicken cells = experiment: Alternative sugars as carbon source for C1F suspension cultures; format: cell-based; conditions: for viable cell density at peak: 3 g/L sugar from day 0, batch, day 3, 1.25% FBS
Experimental: We evaluated the impact of alternative sugars (mannose, fructose and galactose) on the growth and metabolism of an in-house C1F chicken cells grown in suspension cultures containing 1.25% FBS. Specific net growth rate (uN) and Specific glucose consumption rate (qGluc) or specific lactate production rate (qLac) were calculated according to equation 1 or 2 as disclosed in Example 12.
Suspension cultures as described herein were cultivated using 3 g/L of the respective sugars were added from day 0 and cultured in a batch mode up to day 3. On day 3 after sampling, an additional 3 g/L of each sugar was added to the respective flasks. By day 3, at the peak cell density, flasks that used glucose as carbon source had the highest viable cell density (˜2.805×10^6 cells/mL), followed by flasks with mannose (˜2.40×10^6 cells/mL), then fructose (1.935×10^6 cells/mL) and lastly galactose (0.915×10^6 cells/mL).
Since we observed that the C1F cells could utilize fructose as a carbon source, we evaluated the effect of different starting concentration of fructose. In one experiment, 6 g/L of fructose was added to one set of duplicate flasks from day 0, and 3 g/L of fructose added each to another set of duplicate flasks from day 0. In the flasks starting with 3 g/L of fructose, an additional 3 g/L of fructose was added on day 1 of one of the duplicates and day 2 of the other duplicate.
We next evaluated the effect of combining glucose, mannose and fructose on growth and lactate production. Using a design-of-experiment (DOE) approach, 17 batch shake flask runs were carried out evaluating varying combinations of concentrations of glucose, mannose and fructose as energy sources for suspension chicken C1F cells. The experimental design used included 3 factors (glucose, mannose and fructose) and 4 levels (0, 0.5, 1.5 and 3.0 g/L). By day 3, cells with the base carbon sources 3.0 glucose/0.5 fructose/0.5 mannose had the highest viable cell density (VCD) of 3.8×10^6 cell/mL, followed by 3.0 glucose/0.0 fructose/3.0 mannose and 3.0 glucose/3.0 fructose/3.0 mannose. […]

C1F cells [1] = experiment: Sodium oxamate treatment of C1F suspension culture (lactate, glucose, growth); format: cell-based, chicken; conditions: 10, 15, 20 and 30 mM, 3-day batch cell culture
C1F cells [2] = experiment: as above; format: cell-based, chicken
Experimental: […] cells were cultivated in suspension culture supplemented with 1.25% bovine serum. Different concentrations of sodium oxamate were tested: 1, 3, 5, 10, 30, 60, 100, and 200 mM, and production of lactate, glucose consumption, cell growth rates and cell density were measured. The specific rates were calculated using daily viable cell concentration and metabolite concentrations for the duration of the cell culture. Specific net growth rates (UN) were calculated as a change in VCD over a time interval t1 to t2 using equation (1): Specific glucose consumption rate (qGluc) or specific lactate production rate (qLac) were determined using equation (2), where P is glucose or lactate concentration: Viable cell density (VCD) and viability were determined by the trypan blue exclusion method using the Vi-cellTM (Beckman Coulter) from 1 mL daily samples taken from shake flask cell culture. Gas and pH values including metabolite (glucose, lactate glutamine, glutamate, ammonium) concentrations were measured using the Bioprofile Flex analyzer (Nova Biomedical). Osmolality was measured using the OsmoPro Multi-Sample Micro-Osmometer (Advanced Instruments) which employs the freezing point technology. To further examine if the effects of oxamate remained similar in cell culture with metabolic by-products already present, we passaged cells treated with 30 mM oxamate using a 1:3 (v/v) split with fresh media (1⁄3 of the volume of spent media and 2⁄3 of fresh media). Having been used in culture for several days, carried over media invariably contains residual amounts (carryover) of metabolites resultant from cell consumption.

O=C(CO)[C@@H](O)[C@H](O)[C@H](O)CO [fructose]
viable cell density at peak (C1F chicken cells): 1.935×10^6 cells/mL
lactate accumulation, higher by day 3 (C1F chicken cells; 6 g/L from day 0 vs 3 g/L from day 0 plus 3 g/L later): 36%

O=C[C@H](O)[C@@H](O)[C@@H](O)[C@H](O)CO [galactose]
viable cell density at peak (C1F chicken cells): 0.915×10^6 cells/mL

NC(=O)C(=O)[O-].[Na+] [oxamate, sodium oxamate]
decrease in lactate production (C1F cells [1]): about 52%
reduction in lactate production (C1F cells [2]; 10 mM, day 2, C1F-SCM batch shake flasks, vs control, p<0.05): 28%
cell viability and osmolality of the media (C1F cells [2]; 30 mM): not compromised
specific glucose consumption (qGluc) (C1F cells [2]; 30 mM): decreased
increase in maximum viable cell density (C1F cells [2]; 30 mM vs control): ~44%
ammonium accumulation (C1F cells [2]; 30 mM, between days 3 and 5, relative to non-treated control): spiked out
reduction in cumulative lactate production (C1F cells [2]; 30 mM, by day 5, vs control group): ~23%
peak viable cell density (C1F cells [2]; 30 mM, day 5, passaged 1:3 with spent media carryover): 2.79×10^6 cells/mL
lactate production (C1F cells [2]; 30, 60, 100 and 200 mM, 3-day batch culture): concentration-dependent decrease
lactate production vs control (C1F cells [2]; other concentrations tested (1, 3, 5 mM), day 2, C1F-SCM batch): appreciable decrease in lactate production
